We go through six molecules from patent US20260306644A1, “ANTIBODY RECRUITING MOLECULES FOR THE TREATMENT OF CORONAVIRUS DISEASE-19” (priority 2023, published 2026).

Several values for one entry are separate records, joined by “and”; a condition that tells them apart may be missing. Equal values may be shown once. Read-outs that look alike come from different tables or passages of the source. Non-standard residues stand in square brackets, D forms with d. Residues, ends and D or L forms follow the SMILES beside them. No end group written: not given here. *: point of attachment. Biotin = O=C1N[C@H]2[C@H](CS[C@H]2CCCCC(=O)*)N1; PEG4 = NCCOCCOCCOCCOCCC(=O)O; Nle = CCCC[C@H](N)C(=O)O; Aib = CC(C)(N)C(=O)O

Assay [1] deals with T1, SARS-CoV-2 Spike Glycoprotein RBD protein (Severe acute respiratory syndrome coronavirus 2, UniProt P0DTC2).
T1 construct: SARS-CoV-2 (COVID-19) S Protein RBD, His Tag; purchased Acro Biosystems SPD-C52H3
Briefly: Binding of biotinylated ligands to SARS-CoV-2 Spike Glycoprotein RBD protein by ELISA. As for the experimental part: Materials. The binding affinity of biotinylated ligands to SARS-CoV-2 Spike Glycoprotein RBD protein was determined by ELISA. The binding assay was performed using the following steps: (1) assay plates (PE B&W Isoplate 96-well Flat Bottom, High Bindi-g - Perkin Elmer 6005580) were coated with 100 ul Anti-6× His tag antibody (Anti-6× His tag Antibody; Abcam ab15149, Mouse Monoclonal; Cambridge, UK) at 5 μg/ml in PBS, incubate 1 hour at 37° C. without shaking. The plates were washed (each wash step of this assay includes four 1-minute washes with 200 ul phosphate-buffered saline-0.05% (w/v) Tween® 20 detergent (PBST)). (2) Plates were blocked with 200 ul PBST-5% BSA (PBSTB; American Bio AB01088-00100; Canton, MA), for an hour at room temperature on a plate shaker (400 rpm). The plates were washed. […] The plates were washed. (4) Ligands were added, 100 ul at a concentration range of 0.1 mM to 100 nM in PBSTB, and incubated for 1 hour at room temperature on a plate shaker (200 RPM). The plates were washed. (5) NeutrAvidin™-HRP (Invitrogen 31030; Waltham, MA) is added, 100 ul at a dilution of 1:20,000 in PBSTB, and incubated for 1 hour at room temperature on a plate shaker (200 RPM). The plates were washed. (6) SuperSignal ELISA Pico Chemiluminescent Substrate (Thermo Scientific 37069; Waltham, MA) was added and incubated for 5 minutes at room temperature on a plate shaker (200 RPM).
Background: In an ELISA, binding on a coated surface is turned into a signal by an enzyme label.

Assay [2] concerns the target SARS-CoV-2 Spike protein (Severe acute respiratory syndrome coronavirus 2, UniProt P0DTC2). Briefly: Ternary binding of SARS-CoV-2 Spike protein (293T cells expressing Spike-GFP, IgG-AF647, flow cytometry). The following applies: IgG-AF647 10 μg/ml, repeat values/batches listed separately. It counts as cell-based. (In general: A flow cytometer gives signals particle by particle.)

[3] abbreviates: ELISA, biotinylated ligands, Spike RBD, read-out: ELISA SARS-CoV-2 Spike RBD Protein Binding EC50.
Setting [4] is: 293T cells expressing Spike-GFP, read-out: SARS-CoV-2 Ternary binding EC50.

As to `CC[C@H](C)[C@H](NC(=O)[C@H](CC(C)C)NC(=O)[C@H](CC(=O)O)NC(=O)[C@H](CO)NC(=O)[C@@H](NC(=O)[C@H](CCCNC(=N)N)NC(=O)[C@H](CCSC)NC(=O)[C@H](CO)NC(=O)[C@H](C)NC(=O)[C@@H]1CCCN1C(=O)[C@H](C)NC(=O)[C@H](Cc1c[nH]cn1)NC(=O)CNC(=O)[C@H](CC(C)C)NC(=O)[C@H](CCC(=O)O)NC(=O)[C@H](CC(=O)O)NC(=O)[C@H](CC(C)C)NC(=O)[C@H](CC(C)C)NC(=O)[C@H](CCCNC(=N)N)NC(=O)[C@H](CCSC)NC(=O)[C@@H](NC(=O)[C@H](CCC(=O)O)NC(=O)[C@H](Cc1ccc(O)cc1)NC(=O)[C@@H](NC(=O)[C@H](CCCCN)NC(=O)[C@H](CCC(N)=O)NC(=O)[C@H](CC(C)C)NC(=O)[C@@H](NC(=O)[C@H](Cc1c[nH]c2ccccc12)NC(=O)[C@H](CCC(=O)O)NC(=O)[C@H](CCCCN)NC(=O)[C@H](CC(=O)O)NC(=O)CCOCCOCCOCCOCCNC(=O)CCCC[C@@H]1SC[C@@H]2NC(=O)N[C@@H]21)[C@@H](C)CC)[C@@H](C)CC)[C@@H](C)CC)C(C)C)C(=O)N[C@@H](Cc1ccc(O)cc1)C(=O)N[C@@H](CCC(=O)O)C(=O)N[C@@H](Cc1ccccc1)C(=O)N[C@@H](CCSC)C(=O)N[C@@H](CCCCN)C(=O)N[C@@H](CCCCN)C(=O)NCC(=O)N[C@@H](CC(=O)O)C(=O)N[C@@H](CCC(=O)O)C(=O)N[C@@H](CCCNC(=N)N)C(=O)N[C@@H](CC(C)C)C(=O)N[C@@H](CC(C)C)C(=O)N[C@@H](CCC(=O)O)C(=O)N[C@@H](CCC(=O)O)C(=O)N[C@@H](C)C(=O)N[C@@H](CCC(=O)O)C(=O)N[C@@H](CCCNC(=N)N)C(=O)N[C@@H](CC(C)C)C(=O)N[C@@H](CC(C)C)C(=O)N[C@@H](CCC(=O)O)C(=O)N[C@@H](CCC(=O)O)C(=O)N[C@H](C(=O)N[C@@H](CCC(=O)O)C(=O)N[C@@H](CCCNC(=N)N)C(N)=O)C(C)C` [Compound 187], the EC50 in assay [1] came out at 0.37 nM; in assay [2] (SARS-CoV-2 Ternary binding EC50, 293T cells expressing Spike-GFP), 0.07 nM. As for `CC[C@H](C)[C@H](NC(=O)[C@H](CC(C)C)NC(=O)[C@H](CC(=O)O)NC(=O)[C@H](CO)NC(=O)[C@@H](NC(=O)[C@H](CCCNC(=N)N)NC(=O)[C@H](CCSC)NC(=O)[C@H](CO)NC(=O)[C@H](C)NC(=O)[C@@H]1CCCN1C(=O)[C@H](C)NC(=O)[C@H](Cc1c[nH]cn1)NC(=O)CNC(=O)[C@H](CC(C)C)NC(=O)[C@H](CCC(=O)O)NC(=O)[C@H](CC(=O)O)NC(=O)[C@H](CC(C)C)NC(=O)[C@H](CC(C)C)NC(=O)[C@H](CCCNC(=N)N)NC(=O)[C@H](CCSC)NC(=O)[C@@H](NC(=O)[C@H](CCC(=O)O)NC(=O)[C@H](Cc1ccc(O)cc1)NC(=O)[C@@H](NC(=O)[C@H](CCCCN)NC(=O)[C@H](CCC(N)=O)NC(=O)[C@H](CC(C)C)NC(=O)[C@@H](NC(=O)[C@H](Cc1c[nH]c2ccccc12)NC(=O)[C@H](CCC(=O)O)NC(=O)[C@H](CCCCN)NC(=O)[C@H](CC(=O)O)NC(=O)[C@H](CO)NC(=O)CCOCCOCCOCCOCCNC(=O)CCCC[C@@H]1SC[C@@H]2NC(=O)N[C@@H]21)[C@@H](C)CC)[C@@H](C)CC)[C@@H](C)CC)C(C)C)C(=O)N[C@@H](Cc1ccc(O)cc1)C(=O)N[C@@H](CCC(=O)O)C(=O)N[C@@H](Cc1ccccc1)C(=O)N[C@@H](CCSC)C(=O)N[C@@H](CCCCN)C(=O)N[C@@H](CCCCN)C(=O)NCC(N)=O` [Compound 193] ({Biotin-PEG4}-SDKEWILQKIYEIMRLLDELGHAPASMRVSDLIYEFMKKG-NH2), the 50% effective concentration (EC50) was 4.6 nM in assay [1] (setting [3]); 2.3 nM and 0.24 nM in assay [2] (setting [4]).

Consider `CC[C@H](C)[C@H](NC(=O)[C@H](CC(C)C)NC(=O)[C@H](CC(=O)O)NC(=O)[C@H](CO)NC(=O)[C@@H](NC(=O)[C@H](CCCNC(=N)N)NC(=O)[C@H](CCSC)NC(=O)[C@H](CO)NC(=O)[C@H](C)NC(=O)[C@H](CCC(=O)O)NC(=O)[C@H](C)NC(=O)[C@H](Cc1c[nH]cn1)NC(=O)CNC(=O)[C@H](CC(C)C)NC(=O)[C@H](CCC(=O)O)NC(=O)[C@H](CC(=O)O)NC(=O)[C@H](CC(C)C)NC(=O)[C@H](CC(C)C)NC(=O)[C@H](CCCNC(=N)N)NC(=O)[C@H](CCSC)NC(=O)[C@@H](NC(=O)[C@H](CCC(=O)O)NC(=O)[C@H](Cc1ccc(O)cc1)NC(=O)[C@@H](NC(=O)[C@H](CCCCN)NC(=O)[C@H](CCC(N)=O)NC(=O)[C@H](CC(C)C)NC(=O)[C@@H](NC(=O)[C@H](Cc1c[nH]c2ccccc12)NC(=O)[C@H](CCC(=O)O)NC(=O)[C@H](CCCCN)NC(=O)[C@H](CC(=O)O)NC(=O)[C@H](CO)NC(=O)C(C)(C)NC(=O)CCOCCOCCOCCOCCNC(=O)CCCC[C@@H]1SC[C@@H]2NC(=O)N[C@@H]21)[C@@H](C)CC)[C@@H](C)CC)[C@@H](C)CC)C(C)C)C(=O)N[C@@H](Cc1ccc(O)cc1)C(=O)N[C@@H](CCC(=O)O)C(=O)N[C@@H](Cc1ccccc1)C(=O)N[C@@H](CCSC)C(=O)N[C@@H](CCCCN)C(=O)N[C@@H](CCCCN)C(=O)N[C@H](C)C(=O)O` [Compound 214], for which the EC50 in assay [1] (setting [3]) was determined as 0.78 nM. Consider `CC[C@H](C)[C@H](NC(=O)[C@H](CC(C)C)NC(=O)[C@H](CC(=O)O)NC(=O)[C@H](CO)NC(=O)[C@@H](NC(=O)[C@H](CCCNC(=N)N)NC(=O)[C@H](CCSC)NC(=O)[C@H](CO)NC(=O)[C@H](C)NC(=O)[C@H](CCC(=O)O)NC(=O)[C@H](C)NC(=O)[C@H](Cc1c[nH]cn1)NC(=O)CNC(=O)[C@H](CC(C)C)NC(=O)[C@H](CCC(=O)O)NC(=O)[C@H](CC(=O)O)NC(=O)[C@H](CC(C)C)NC(=O)[C@H](CC(C)C)NC(=O)[C@H](CCCNC(=N)N)NC(=O)[C@H](CCSC)NC(=O)[C@@H](NC(=O)[C@H](CCC(=O)O)NC(=O)[C@H](Cc1ccc(O)cc1)NC(=O)[C@@H](NC(=O)[C@H](CCCCN)NC(=O)[C@H](CCC(N)=O)NC(=O)[C@H](CC(C)C)NC(=O)[C@@H](NC(=O)[C@H](Cc1c[nH]c2ccccc12)NC(=O)[C@H](CCC(=O)O)NC(=O)[C@H](CCCCN)NC(=O)[C@H](CC(=O)O)NC(=O)[C@H](CO)NC(=O)C(C)(C)NC(=O)CCOCCOCCOCCOCCNC(=O)CCCC[C@@H]1SC[C@@H]2NC(=O)N[C@@H]21)[C@@H](C)CC)[C@@H](C)CC)[C@@H](C)CC)C(C)C)C(=O)N[C@@H](Cc1ccc(O)cc1)C(=O)N[C@@H](CCC(=O)O)C(=O)N[C@@H](Cc1ccccc1)C(=O)N[C@@H](CCSC)C(=O)N[C@@H](CCCCN)C(=O)N[C@@H](CCCCN)C(=O)N[C@H](Cc1ccccc1)C(=O)O` [Compound 216], for which the EC50 turned out to be 1.11 nM in assay [1] (setting [3]) and 0.46 nM in assay [2] (setting [4]). In the same order, the values of `CCCC[C@H](NC(=O)[C@H](CCC(=O)O)NC(=O)[C@H](CC(=O)O)NC(=O)[C@H](CC(C)C)NC(=O)[C@H](CC(C)C)NC(=O)[C@H](CCCNC(=N)N)NC(=O)[C@H](CCSC)NC(=O)[C@@H](NC(=O)[C@H](CCC(=O)O)NC(=O)[C@H](Cc1ccc(O)cc1)NC(=O)[C@@H](NC(=O)[C@H](CCCCN)NC(=O)[C@H](CCC(N)=O)NC(=O)[C@H](CC(C)C)NC(=O)[C@@H](NC(=O)[C@H](Cc1c[nH]c2ccccc12)NC(=O)[C@H](CCC(=O)O)NC(=O)[C@H](CCCCN)NC(=O)[C@H](CC(=O)O)NC(=O)CCOCCOCCOCCOCCNC(=O)CCCC[C@@H]1SC[C@@H]2NC(=O)N[C@@H]21)[C@@H](C)CC)[C@@H](C)CC)[C@@H](C)CC)C(=O)N[C@H](Cc1c[nH]cn1)C(=O)N[C@@H](Cc1c[nH]cn1)C(=O)N[C@@H](C)C(=O)N[C@@H](CCC(=O)O)C(=O)N[C@@H](C)C(=O)N[C@@H](CO)C(=O)N[C@@H](CCSC)C(=O)N[C@@H](CCCNC(=N)N)C(=O)N[C@H](C(=O)N[C@@H](CO)C(=O)N[C@@H](CC(=O)O)C(=O)N[C@@H](CC(C)C)C(=O)N[C@H](C(=O)N[C@@H](Cc1ccc(O)cc1)C(=O)N[C@@H](CCC(=O)O)C(=O)N[C@@H](Cc1ccccc1)C(=O)N[C@@H](CCSC)C(=O)N[C@@H](CCCCN)C(=O)N[C@@H](CCCCN)C(=O)NCC(=O)O)[C@@H](C)CC)C(C)C` [Compound 222] are 0.79 nM and 0.02 nM. As for “{Biotin-PEG4}-[Aib]SDKEWILQKIYEI[Nle]RLLDELGHAEAS[Nle]RVSDLIY[Aib]FMK[Aib]G [Compound 220]”, the EC50 in assay [1] (setting [3]) turned out to be 2.55 nM.

Usually EC50 stands for the concentration that produces a half-maximal response.
